Values quoted from earlier work as cited in patent publication US20220118118A1, “BENZAZEPIN-L,7-DIOL-DERIVED RADIOLABELED LIGANDS WITH HIGH IN VIVO NMDA SPECIFICITY” (ETH ZURICH, priority 2018, published 2022).

Conditions: Garrigou-Cadenne et al. 1995

OC(CN1CCC(Cc2ccc(F)cc2)CC1)c1ccc(Cl)cc1 (stereo not shown) [eliprodil]
brain/plasma ratio: about 20
